Experiment: Half life measured in vitro for its stability in human blood
Type: ADME, tissue-based
Work on `CCOc1cccc2c1C(=O)N(COC(=O)c1c(Cl)cccc1Cl)S2(=O)=O` yielded a half-life of 10 min. Work on `CCOc1cc(OCC)c2c(c1)S(=O)(=O)N(COC(=O)c1c(Cl)cccc1Cl)C2=O` yielded a half-life of 98 min. `COc1cc(OC)c2c(c1)S(=O)(=O)N(COC(=O)c1c(Cl)cccc1Cl)C2=O` gave a half-life of 30 min. With `COc1ccc2c(c1)S(=O)(=O)N(COC(=O)c1c(Cl)cccc1Cl)C2=O` the half-life was 5 min.

Source: ChEMBL document CHEMBL1128630, “Alkoxy substituted benzisothiazolone (BIT) derivatives: potent inhibitors of human leukocyte elastase” (Bioorg Med Chem Lett, 1995)
